Assay results published in patent publication US20090023687A1, “Method for Controlling Phytopathogenic Organisms” (SYNGENTA CROP PROTECTION, INC., priority 2005, published 2009).

Tests used:
Format in all cases: in vivo
[1] = test system: Phakopsora pachyrhizi; assay: Leaf disc test with Phakopsora pachyrhizi on glyphosate sensitive soybean, leaf disks treated (Example 4)
Description: (§1) A synergistic effect exists whenever the action of an active ingredient combination is greater than the action expected from the effect of the individual components.
(§2) The action to be expected (E) for a given active ingredient combination obeys the so-called COLBY formula and can be calculated as follows (COLBY, S. R. “Calculating synergistic and antagonistic responses of herbicide combination”. Weeds, Vol. 15, pages 20-22; 1967):
(§3) ppm=milligrams of active ingredient (=a.i.) per litre of spray mixture X=% action by active ingredient I using p ppm of active ingredient Y=% action by active ingredient II using q ppm of active ingredient.
(§4) According to Colby, the expected (additive) action of active ingredients I+II using p+q ppm of active ingredient is
(§5) If the action actually observed (O) is greater than the expected action (E), then the action of the combination is superadditive, i.e. there is a synergistic effect.
A series of leaf disc tests were conducted to show the effects of tank mixtures of glyphosate and pesticides or plant activators on Asian soybean rust. The soybean variety tested was brand Williams82 glyphosate sensitive soybean. The leaf source for the testing was the first trifoliate leaf. Six (6) repetitions for each formulation and at each rate were conducted. Treatment of the leaf disks with the recited active ingredients was conducted 4 weeks after planting. The leaves were inoculated with Phakopsora pachyrhizi (Asian soybean rust (ASR)) one (1) day after treatment. Evaluation of the leaf was conducted ten (10) days after inoculation and the mean percent infestation of the six repetitions is reported in Tables 8-11.
As glyphosate source Touchdown® HiTech or Zapp® QI was used. The fungicides were used as commercial formulations: Bion® WG50 plant activator comprising acibenzolar-S-methyl (Syngenta Corp.), Opus® SC125 fungicide comprising epoxiconazole commercially (BASF AG), Tilt® EC250 fungicide comprising propiconazole (Syngenta Corp.), Quadris® SC250 fungicide comprising azoxystrobin (Syngenta Corp.). The rates of the active ingredients used in the tests are set in Tables 8-11 as mg active ingredient (a.i.)/L.

[2] = test system: Puccinia recondita; assay: Greenhouse trial with Puccinia recondita on glyphosate sensitive wheat (Example 3); conditions: read-out: % activity observed
Description: as §1, §2, §3, §4, §5
Greenhouse tests were conducted to show the effects of tank mixtures of glyphosate and the ortho-substituted phenyl-amide (OPA) fungicides represented by structures F-10, F-5 and F-9 on cereal rust Puccinia recondita. The wheat variety tested was brand Kanzler glyphosate sensitive wheat. Three (3) repetitions for each formulation and at each rate were conducted. Treatment of the plants with the recited active ingredients was conducted preventatively 16 days after planting. The leaves were inoculated with Puccinia recondita one (1) day after treatment. Evaluation of the leaf was conducted […] after inoculation and the mean percent infestation of the three repetitions is reported in Tables 5-7.
The glyphosate source was Zapp® QI herbicide containing the potassium salt of glyphosate as well as an adjuvant system. The compound OPA F-5 used was a compound of formula F-5, wherein the ratio of racemic compounds of formula F-3 (syn) to racemic compounds of formula F-4 (anti) was 9:1. The compound OPA F-9 used was a compound of formula F-9, wherein the ratio of racemic compounds of formula F-7 (trans) to racemic compounds of formula F-8 (cis) was around 100:1. The fungicides used were EC 100 formulations of OPA F-10, OPA F-5 and OPA F-9 which are emulsion concentrates containing 100 ga.i./L. The rates of the active ingredients used in the tests are set in Tables 5-7 as mg active ingredient (a.i.)/L.

[3] = test system: Phakopsora pachyrhizi; assay: Application on whole plants: leaf disc test with Phakopsora pachyrhizi on glyphosate tolerant soybean (Example 6)
Description: as §1, §2, §3, §4, §5
Leaf disc tests were conducted to show the effects of tank mixtures of glyphosate and pesticides or plant activators on Asian soybean rust. The soybean variety tested was brand S40-R9 glyphosate tolerant soybean. The leaf source for the testing was the first trifoliate leaf. Six (6) repetitions for each formulation and at each rate were conducted. […] were cut and inoculated with Phakopsora pachyrhizi (Asian soybean rust (ASR)) one (1) day after treatment. Evaluation of the leaf was conducted ten (10) days after inoculation and the mean percent infestation of the six repetitions is reported in Tables 15-17.
As glyphosate source Touchdown® HiTech or Zapp® QI was used. The fungicides were used as commercial formulations: Bravo® SC500 fungicide comprising chlorothalonil (Syngenta Corp.), Score® EC250 fungicide comprising difenaconazole (Syngenta Corp.) and Mancozeb 80WP fungicide comprising mancozeb. The rates of the active ingredients used in the tests are set in Tables 15-17 as g active ingredient (a.i.)/hectare (ha). The spray volume was 200 l/ha.

[4] = test system: Phakopsora pachyrhizi; assay: Application on whole plants: leaf disc test with Phakopsora pachyrhizi on glyphosate sensitive soybean (Example 5)
Description: as §1, §2, §3, §4, §5
A series of leaf disc tests were conducted to show the effects of tank mixtures of glyphosate and pesticides or plant activators on Asian soybean rust. The soybean variety tested was brand Williams82 glyphosate sensitive soybean. The leaf source for the testing was the first trifoliate leaf. Six (6) repetitions for each formulation and at each rate were conducted. Treatment of whole plants with the recited active ingredients was conducted 4 weeks after planting. After application, leaf disks were cut and inoculated with Phakopsora pachyrhizi (Asian soybean rust (ASR)) one (1) day after treatment. Evaluation of the leaf was conducted ten (10) days after inoculation and the mean percent infestation of the six repetitions is reported in Tables 12-14.
As glyphosate source Touchdown® HiTech or Zapp® QI was used. The fungicides were used as commercial formulations: Cantus® WG50 fungicide comprising boscalid (BASF AG), Quadris® SC250 fungicide and Bion® WG50 plant activator comprising acibenzolar-S-methyl. The rates of the active ingredients used in the tests are set in Tables 12-14 as g active ingredient (a.i.)/hectare (ha). The spray volume was 200 l/ha.

[5] = Glyphosate TD HiTech SL523 2.5 mg a.i./L, Table 9 (check 77)
[6] = Glyphosate TD HiTech SL523 2.5 mg a.i./L, Table 11 (check 80)
[7] = Glyphosate TD HiTech SL523 7.4 mg a.i./L, Table 11 (check 80)
[8] = Glyphosate TD HiTech SL523 7.4 mg a.i./L, Tables 9-10 (check 77)
[9] = Glyphosate TD HiTech SL523 22.2 mg a.i./L
[10] = Glyphosate Zapp QI SL500 22.2 mg a.i./L
[11] = Glyphosate Zapp QI SL500 66.7 mg a.i./L
[12] = Glyphosate TD HiTech SL523 500 g a.i./ha, Tables 15, 17 (check 60)
[13] = Glyphosate TD HiTech SL523 1500 g a.i./ha, Table 16 (check 49)
[14] = Glyphosate TD HiTech SL523 1500 g a.i./ha, Tables 15, 17 (check 60)
[15] = Glyphosate TD HiTech SL523 200 g a.i./ha
[16] = Glyphosate TD HiTech SL523 500 g a.i./ha
[17] = Glyphosate TD HiTech SL523 600 g a.i./ha

For `O=C(O)CNCP(=O)(O)O` [Glyphosate, glyphosate], the Activity observed % [1, 5] was 0%, the Leaf attack % [1, 5] was 80% and the Activity observed % [1, 6] was 8%. The Leaf attack % [1, 6] was 74%, the Activity observed % [1, 7] was 0% and the Leaf attack % [1, 7] was 80%. It also gave an Activity observed % [1, 8] of 0%, a Leaf attack % [1, 8] of 80% and an Activity observed % [1, 9] of 0%. The Leaf attack % [1, 9] was 80%, the Activity observed % [1, 10] was 1% and the Leaf attack % [1, 10] was 68%. For the same compound, the Activity observed % [1, 11] was 1%, the Leaf attack % [1, 11] was 68% and the inhibition at 66 µg/mL ([2]; Glyphosate 66 mg a.i./L (Zapp QI)) was 0%. For the same compound, the inhibition at 200 µg/mL ([2]; Glyphosate 200 mg a.i./L (Zapp QI)) was 42%, the Activity observed % [3, 12] was 0% and the Leaf attack % [3, 12] was 68%. It also gave an Activity observed % [3, 13] of 44%, a Leaf attack % [3, 13] of 28% and an Activity observed % [3, 14] of 17%. It also gave a Leaf attack % [3, 14] of 50%, an Activity observed % [4, 15] of 7% and a Leaf attack % [4, 15] of 58%. For the same compound, the Activity observed % [4, 16] was 10%, the Leaf attack % [4, 16] was 56% and the Activity observed % [4, 17] was 19%. For the same compound, the Leaf attack % [4, 17] was 50%.
